Laboratory results taken from patent publication US6620828B2, “Thiazole compounds and pharmaceutical compositions for inhibiting protein kinases and methods for their use” (Agouron Pharmaceuticals, Inc., priority 1999, dated 2003).
Read-outs that look alike come from different tables or passages of the source.

Tested on: human umbilical vein endothelial cells (HUVEC)
Test: HUVEC proliferation assay
Type: cell-based
Conditions: for inhibition at 0.001 µM / inhibition at 0.01 µM / inhibition at 0.05 µM / inhibition at 0.15 µM: Homo sapiens, HUVEC; for inhibition at 0.001 µM: 1 nM; for inhibition at 0.01 µM: 10 nM; for inhibition at 0.05 µM: 50 nM; for inhibition at 0.15 µM / % inhibition @ 150 nM: Table I screening results, 150 nM
Outline: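 Readout was MTT dye reduction (A595) after 72 h of stimulation with VEGF at 6 ng/ml final. Compound, in 0.1% DMSO final, was added 1 h before VEGF to HUVEC starved 24 h in 1% FBS. % inhibition was scaled between VEGF-alone and unstimulated wells; IC50 was fitted from triplicate dose curves.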

[1] = table following Table II (untitled), crude combinatorial library
[2] = table following Table II (untitled), crude combinatorial library, read-out: % inhibition @ 10 nM
[3] = crude combinatorial urea library, read-out: Inhibition of HUVEC Proliferation % inhibition @ 10 nM
[4] = crude combinatorial urea library, read-out: Inhibition of HUVEC Proliferation % inhibition @ 50 nM
[5] = Inhibition of HUVEC Proliferation, crude combinatorial urea library, read-out: % inhibition @ 50 nM
[6] = Table II screening results, crude combinatorial amide library
[7] = Table II screening results, crude combinatorial amide library, read-out: % inhibition @ 10 nM
[8] = Inhibition of HUVEC Proliferation, crude combinatorial urea library, read-out: Inhibition @ 50 nM
[9] = crude combinatorial amide library

## COc1cc(Nc2nc(N)c(-c3nc(-c4cc(NC(=O)C5C(C)(C)C5(C)C)ccc4C)no3)s2)cc(OC)c1OC
[1]
  inhibition at 0.001 µM: -31%
[2]
  inhibition at 0.01 µM: 32%

## COc1cccc(C(=O)Nc2cccc(-c3csc(-c4sc(NC(=O)NCCc5cncn5C)nc4N)n3)c2)c1
[3]
  inhibition at 0.01 µM: -15%
[4]
  inhibition at 0.05 µM: 15%

## CCN(CC)CCCC(C)NC(=O)Nc1nc(N)c(-c2nc(-c3cc(NC(=O)c4cccc(OC)c4)c(F)cc3F)cs2)s1 (stereo not shown)
[5]
  inhibition at 0.05 µM: 84%

## CCN(CCNC(=O)Nc1nc(N)c(-c2nc(-c3cc(NC(=O)c4cccc(OC)c4)c(F)cc3F)cs2)s1)c1cccc(C)c1
[5]
  inhibition at 0.05 µM: 18%

## COc1cccc(C(=O)Nc2cccc(-c3csc(-c4sc(NC(=O)NC5CC(C)(C)NC(C)(C)C5)nc4N)n3)c2)c1
[3]
  inhibition at 0.01 µM: -13%
[4]
  inhibition at 0.05 µM: 29%

## CNC(=O)Nc1nc(N)c(-c2nc(-c3cccc(NC(=O)c4cc(OC)ccc4C#N)c3)cs2)s1
[6]
  inhibition at 0.001 µM: -18%
[7]
  inhibition at 0.01 µM: -1%

## COc1cccc(C(=O)Nc2cccc(-c3csc(-c4sc(NC(=O)NCc5ccccc5)nc4N)n3)c2)c1
[3]
  inhibition at 0.01 µM: -11%
[4]
  inhibition at 0.05 µM: 114%

## COc1cccc(C(=O)Nc2cc(-c3noc(-c4sc(NC(=O)NCc5ccc(N)cc5)nc4N)n3)c(F)cc2F)c1
[8]
  inhibition at 0.05 µM: 82%

## COc1cccc(C(=O)Nc2cc(-c3noc(-c4sc(NC(=O)NCCCn5ccnc5)nc4N)n3)c(F)cc2F)c1
[8]
  inhibition at 0.05 µM: 87%

## CNC(=O)Nc1nc(N)c(-c2nc(-c3cccc(NC(=O)c4cc(C)on4)c3)cs2)s1
[6]
  inhibition at 0.001 µM: 14%
[7]
  inhibition at 0.01 µM: 10%

## COc1cccc(C(=O)Nc2cc(-c3noc(-c4sc(NC(=O)NC5CCN(Cc6ccccc6)CC5)nc4N)n3)c(F)cc2F)c1
[8]
  inhibition at 0.05 µM: 82%

## COc1cc(Nc2nc(N)c(-c3nc(-c4cc(NC(=O)CCc5ccc(C)cc5)ccc4C)no3)s2)cc(OC)c1OC
[1]
  inhibition at 0.001 µM: -18%
[2]
  inhibition at 0.01 µM: 23%

## COc1cc(Nc2nc(N)c(-c3nc(-c4cccc(NC(=O)c5ccc(Br)o5)c4)cs3)s2)cc(OC)c1OC [drawing 929]
[9]
  inhibition at 0.15 µM: 34%

## COCCNC(=O)Nc1nc(N)c(-c2nc(-c3cc(NC(=O)c4cccc(OC)c4)c(F)cc3F)no2)s1
[8]
  inhibition at 0.05 µM: 53%

## COc1cccc(C(=O)Nc2cc(-c3csc(-c4sc(NC(=O)NCC5CCC=CO5)nc4N)n3)c(F)cc2F)c1 (stereo not shown)
[5]
  inhibition at 0.05 µM: 42%

## COc1cccc(C(=O)Nc2cc(-c3csc(-c4sc(NC(=O)NCCc5ccccn5)nc4N)n3)c(F)cc2F)c1
[5]
  inhibition at 0.05 µM: 105%

## C/C=C/CC(=O)Nc1cccc(-c2csc(-c3sc(Nc4cc(OC)c(OC)c(OC)c4)nc3N)n2)c1
[9]
  inhibition at 0.15 µM: 38%

## CNC(=O)Nc1nc(N)c(-c2nc(-c3cccc(NC(=O)C4C(C)(C)C4(C)C)c3)cs2)s1
[6]
  inhibition at 0.001 µM: 11%
[7]
  inhibition at 0.01 µM: 21%

## COc1cccc(C(=O)Nc2cc(-c3noc(-c4sc(NC(=O)NCCN(C)C)nc4N)n3)c(F)cc2F)c1
[8]
  inhibition at 0.05 µM: 69%

## COc1cc(Nc2nc(N)c(-c3nc(-c4cc(NC(=O)C5CC6C=CCC(C6)C5)ccc4C)no3)s2)cc(OC)c1OC (stereo not shown)
[1]
  inhibition at 0.001 µM: 18%
[2]
  inhibition at 0.01 µM: 18%

## COc1cc(Nc2nc(N)c(-c3nc(-c4cccc(NC(=O)c5ccc(C)c(Br)c5)c4)cs3)s2)cc(OC)c1OC
[9]
  inhibition at 0.15 µM: 86%

## CCNc1ccccc1C(=O)Nc1ccc(C)c(-c2noc(-c3sc(Nc4cc(OC)c(OC)c(OC)c4)nc3N)n2)c1
[1]
  inhibition at 0.001 µM: -21%
[2]
  inhibition at 0.01 µM: 18%

## COc1ccc2c(c1)C(CC(=O)Nc1cccc(-c3csc(-c4sc(Nc5cc(OC)c(OC)c(OC)c5)nc4N)n3)c1)CC2=O (stereo not shown)
[9]
  inhibition at 0.15 µM: 0%

## COc1cc(Nc2nc(N)c(-c3nc(-c4cc(NC(=O)C5=CCCN(C)C5)ccc4C)no3)s2)cc(OC)c1OC
[1]
  inhibition at 0.001 µM: 5%
[2]
  inhibition at 0.01 µM: 1%

## COc1cccc(C(=O)Nc2cccc(-c3csc(-c4sc(NC(=O)NCC5CCC=CO5)nc4N)n3)c2)c1 (stereo not shown)
[3]
  inhibition at 0.01 µM: -5%
[4]
  inhibition at 0.05 µM: 33%

## COc1cccc(C(=O)Nc2cc(-c3noc(-c4sc(NC(=O)NCCc5ccccn5)nc4N)n3)c(F)cc2F)c1
[8]
  inhibition at 0.05 µM: 78%

## CNC(=O)Nc1nc(N)c(-c2nc(-c3cccc(NC(=O)CC4CC5CCC4C5)c3)cs2)s1 (stereo not shown)
[6]
  inhibition at 0.001 µM: 0%
[7]
  inhibition at 0.01 µM: 93%

## COc1cc(Nc2nc(N)c(-c3nc(-c4cccc(NC(=O)c5ccc6cc[nH]c6c5)c4)cs3)s2)cc(OC)c1OC
[9]
  inhibition at 0.15 µM: 25%

## C/C=C(\C)C(=O)Nc1ccc(C)c(-c2noc(-c3sc(Nc4cc(OC)c(OC)c(OC)c4)nc3N)n2)c1
[1]
  inhibition at 0.001 µM: 60%
[2]
  inhibition at 0.01 µM: 123%

## COc1cc(CCC(=O)Nc2cccc(-c3csc(-c4sc(Nc5cc(OC)c(OC)c(OC)c5)nc4N)n3)c2)cc(OC)c1OC
[9]
  % inhibition @ 150 nM: 0%

## COc1cc(Nc2nc(N)c(-c3nc(-c4cccc(NC(=O)C(C5CCCCC5)C5CCCCC5)c4)cs3)s2)cc(OC)c1OC
[9]
  % inhibition @ 150 nM: 0%

## COc1cc(Nc2nc(N)c(-c3nc(-c4cccc(NC(=O)C5C(C=C(C)C)C5(C)C)c4)cs3)s2)cc(OC)c1OC (stereo not shown)
[9]
  inhibition at 0.15 µM: 19%

## CCCCN(CCCC)CCCNC(=O)Nc1nc(N)c(-c2nc(-c3cc(NC(=O)c4cccc(OC)c4)c(F)cc3F)cs2)s1
[5]
  inhibition at 0.05 µM: 81%

## COc1cccc(C(=O)Nc2cc(-c3noc(-c4sc(NC(=O)N[C@H]5CC[C@H](O)CC5)nc4N)n3)c(F)cc2F)c1 [drawing 770]
[8]
  inhibition at 0.05 µM: 92%

## COc1cc(Nc2nc(N)c(-c3nc(-c4cccc(NC(=O)/C=C/c5c[nH]c6ccccc56)c4)cs3)s2)cc(OC)c1OC
[9]
  inhibition at 0.15 µM: 5%

## COc1cc(Nc2nc(N)c(-c3nc(-c4cc(NC(=O)Cc5cccnc5)ccc4C)no3)s2)cc(OC)c1OC
[1]
  inhibition at 0.001 µM: -4%
[2]
  inhibition at 0.01 µM: 21%

## COc1cc(Nc2nc(N)c(-c3nc(-c4cccc(NC(=O)Cc5ccc(Cl)cc5Cl)c4)cs3)s2)cc(OC)c1OC
[9]
  inhibition at 0.15 µM: -20%

## COc1cccc(C(=O)Nc2cccc(-c3csc(-c4sc(NC(=O)NCCN(C(C)C)C(C)C)nc4N)n3)c2)c1
[3]
  inhibition at 0.01 µM: 2%
[4]
  inhibition at 0.05 µM: 22%

## COc1cc(Nc2nc(N)c(-c3nc(-c4cc(NC(=O)C(O)c5ccccc5)ccc4C)no3)s2)cc(OC)c1OC (stereo not shown)
[1]
  inhibition at 0.001 µM: -1%
[2]
  inhibition at 0.01 µM: 40%

## C=CCC(C)C(=O)Nc1cccc(-c2csc(-c3sc(Nc4cc(OC)c(OC)c(OC)c4)nc3N)n2)c1 (stereo not shown)
[9]
  % inhibition @ 150 nM: 0%

## COc1cccc(C(=O)Nc2cccc(-c3csc(-c4sc(NC(=O)NCC5(O)CCCCC5)nc4N)n3)c2)c1
[3]
  inhibition at 0.01 µM: 4%
[4]
  inhibition at 0.05 µM: 2%

## [CH2-][N+](=O)c1cccc(/C=C/C(=O)Nc2cccc(-c3csc(-c4sc(Nc5cc(OC)c(OC)c(OC)c5)nc4N)n3)c2)c1
[9]
  % inhibition @ 150 nM: 0%

## COc1cccc(C(=O)Nc2cc(-c3noc(-c4sc(NC(=O)NCCC5CCCN5C)nc4N)n3)c(F)cc2F)c1 (stereo not shown)
[8]
  inhibition at 0.05 µM: 104%

## COc1cccc(C(=O)Nc2cc(-c3noc(-c4sc(NC(=O)NCCc5cncn5C)nc4N)n3)c(F)cc2F)c1
[8]
  inhibition at 0.05 µM: 10%

## COc1cc(Nc2nc(N)c(-c3nc(-c4cccc(NC(=O)CSc5ccncc5)c4)cs3)s2)cc(OC)c1OC
[9]
  inhibition at 0.15 µM: -34%

## COc1ccc(CCC(=O)Nc2cccc(-c3csc(-c4sc(Nc5cc(OC)c(OC)c(OC)c5)nc4N)n3)c2)cc1OC
[9]
  inhibition at 0.15 µM: 23%

## COc1cc(Nc2nc(N)c(-c3nc(-c4cccc(NC(=O)c5cc(C(C)(C)C)cc(C(C)(C)C)c5)c4)cs3)s2)cc(OC)c1OC
[9]
  inhibition at 0.15 µM: -12%

## COc1cccc(C(=O)Nc2cc(-c3noc(-c4sc(NC(=O)NC(CO)CO)nc4N)n3)c(F)cc2F)c1
[8]
  inhibition at 0.05 µM: 31%

## CC/C=C(\C)C(=O)Nc1ccc(C)c(-c2noc(-c3sc(Nc4cc(OC)c(OC)c(OC)c4)nc3N)n2)c1
[1]
  inhibition at 0.001 µM: 32%
[2]
  inhibition at 0.01 µM: 74%

## COc1cccc(C(=O)Nc2cc(-c3noc(-c4sc(NC(=O)NCCN(C(C)C)C(C)C)nc4N)n3)c(F)cc2F)c1
[8]
  inhibition at 0.05 µM: -6%

## COc1cccc(C(=O)Nc2cc(-c3csc(-c4sc(NC(=O)NCCOCCO)nc4N)n3)c(F)cc2F)c1 [drawing 699]
[5]
  inhibition at 0.05 µM: 98%

## COc1cc(Nc2nc(N)c(-c3nc(-c4cc(NC(=O)[C@@]56C[C@@H]7C[C@@H]5CC7(C)C6)ccc4C)no3)s2)cc(OC)c1OC
[1]
  inhibition at 0.001 µM: 1%
[2]
  inhibition at 0.01 µM: 23%

## COc1cc(Nc2nc(N)c(-c3nc(-c4cc(NC(=O)C5CCSCN5C)ccc4C)no3)s2)cc(OC)c1OC (stereo not shown)
[1]
  inhibition at 0.001 µM: 14%
[2]
  inhibition at 0.01 µM: 29%

## COc1cccc(C(=O)Nc2cccc(-c3csc(-c4sc(NC(=O)NCC(=N)N)nc4N)n3)c2)c1
[3]
  inhibition at 0.01 µM: 27%
[4]
  inhibition at 0.05 µM: 46%
